In patent publication US20210045385A1, “PYRIDAZINONE-SUBSTITUTED KETOXIMES AS HERBICIDES” (FMC Corporation, priority 2018, published 2021):

Legend:
Format in all cases: in vivo
[1] = tested on: barnyardgrass (Echinochloa crus-galli); assay: Test D flooded paddy test, visual plant response rating; conditions: 250 g ai/ha, scale 0 to 100 (0 no effect, 100 complete control), 13 to 15 d
Procedure, shortened: (§1)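 2-leaf plants, flooded 3 cm, cpd into paddy water; greenhouse 13–15 d; visual rating vs controls, 0 = no effect, 100 = complete control; dash = no result.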

[2] = tested on: sedge umbrella (small-flower umbrella sedge, Cyperus difformis); assay: as above; conditions: 250 g ai/ha, scale 0 to 100 (0 no effect, 100 complete control), 13 to 15 d
Procedure, shortened: as §1

rice (Oryza sativa) = assay: as above; conditions: 250 g ai/ha, scale 0 to 100 (0 no effect, 100 complete control), 13 to 15 d
Procedure, shortened: as §1

[3] = tested on: duck salad (Heteranthera limosa); assay: as above; conditions: 250 g ai/ha, scale 0 to 100 (0 no effect, 100 complete control), 13 to 15 d
Procedure, shortened: as §1

kochia (Bassia scoparia) [4] = assay: Test C preemergence, visual plant response rating; conditions: Test C, 0 is no effect, 100 is complete control
Procedure, shortened: (§2)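 Compounds in a non-phytotoxic solvent with surfactant were applied as a directed soil spray preemergence or to 2–10 cm, one- to two-leaf plants postemergence, in loam–sand soil. After about 10 d in a greenhouse, injury was visually rated against untreated controls on a 0–100 scale (100 = complete control).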

[5] = tested on: barnyardgrass (Echinochloa crus-galli); assay: Test C preemergence, visual plant response rating; conditions: Test C, 0 is no effect, 100 is complete control
Procedure, shortened: as §2

[6] = tested on: pigweed (Amaranthus retroflexus); assay: Test C preemergence, visual plant response rating; conditions: Test C, 0 is no effect, 100 is complete control
Procedure, shortened: as §2

[7] = tested on: ragweed (common ragweed, Ambrosia artemisiifolia); assay: Test C preemergence, visual plant response rating; conditions: Test C, 0 is no effect, 100 is complete control
Procedure, shortened: as §2

[8] = tested on: Italian ryegrass (Lolium mutiflorum); assay: Test C preemergence, visual plant response rating; conditions: Test C, 0 is no effect, 100 is complete control
Procedure, shortened: as §2

[9] = tested on: foxtail, giant (giant foxtail, Setaria faberi); assay: Test C preemergence, visual plant response rating; conditions: Test C, 0 is no effect, 100 is complete control
Procedure, shortened: as §2

kochia (Bassia scoparia) [10] = assay: Test C postemergence, visual plant response rating
Procedure, shortened: as §2

[11] = tested on: barnyardgrass (Echinochloa crus-galli); assay: Test C postemergence, visual plant response rating
Procedure, shortened: as §2

[12] = tested on: pigweed (Amaranthus retroflexus); assay: Test C postemergence, visual plant response rating
Procedure, shortened: as §2

[13] = tested on: ragweed (common ragweed, Ambrosia artemisiifolia); assay: Test C postemergence, visual plant response rating
Procedure, shortened: as §2

[14] = tested on: Italian ryegrass (Lolium mutiflorum); assay: Test C postemergence, visual plant response rating
Procedure, shortened: as §2

[15] = tested on: blackgrass (Alopecurus myosuroides); assay: Test C postemergence, visual plant response rating
Procedure, shortened: as §2

corn (Zea mays) = assay: Test C postemergence, visual plant response rating
Procedure, shortened: as §2

[16] = tested on: wheat (Triticum aestivum); assay: Test C postemergence, visual plant response rating
Procedure, shortened: as §2

[17] = tested on: galium (catchweed bedstraw, Galium aparine); assay: Test C postemergence, visual plant response rating
Procedure, shortened: as §2

[18] = tested on: foxtail, giant (giant foxtail, Setaria faberi); assay: Test C postemergence, visual plant response rating
Procedure, shortened: as §2

[19] = Test C, postemergence, 125 g ai/ha

Compound	Plant response rating, Barnyardgrass (Flood) [1]	Plant response rating, Sedge, Umbrella (Flood) [2]	Plant response rating, Rice (Flood) (rice (Oryza sativa))	Plant response rating, Ducksalad (Flood) [3]	Kochia plant response rating (0 to 100 scale) (kochia (Bassia scoparia) [4]; 31 g ai/ha)	Kochia plant response rating (0 to 100 scale) (kochia (Bassia scoparia) [4]; 125 g ai/ha)	Barnyardgrass plant response rating (0 to 100 scale) ([5]; 31 g ai/ha)	Barnyardgrass plant response rating (0 to 100 scale) ([5]; 125 g ai/ha)	Pigweed plant response rating (0 to 100 scale) ([6]; 31 g ai/ha)	Pigweed plant response rating (0 to 100 scale) ([6]; 125 g ai/ha)	Ragweed plant response rating (0 to 100 scale) ([7]; 31 g ai/ha)	Ragweed plant response rating (0 to 100 scale) ([7]; 125 g ai/ha)	Ryegrass, Italian plant response rating (0 to 100 scale) ([8]; 31 g ai/ha)	Ryegrass, Italian plant response rating (0 to 100 scale) ([8]; 125 g ai/ha)	Foxtail, Giant plant response rating (0 to 100 scale) ([9]; 31 g ai/ha)	Foxtail, Giant plant response rating (0 to 100 scale) ([9]; 125 g ai/ha)	Kochia plant response rating (0 to 100 scale) (kochia (Bassia scoparia) [10]; Postemergence, 31 g ai/ha)	Kochia plant response rating (0 to 100 scale) (kochia (Bassia scoparia) [10]; [19])	Barnyardgrass plant response rating (0 to 100 scale) ([11]; Postemergence, 31 g ai/ha)	Barnyardgrass plant response rating (0 to 100 scale) [11, 19]	further results
CON=C(c1cc(Cl)cc(F)c1Cl)c1c(O)c(C)nn(C)c1=O [Compound 271]	0	0	0	0	20	100	30	50	100	100	30	80	80	100	40	80	60	80	40	80	Pigweed plant response rating (0 to 100 scale) ([12]; Postemergence, 31 g ai/ha): 80; Pigweed plant response rating (0 to 100 scale) [12, 19]: 90; Ragweed plant response rating (0 to 100 scale) ([13]; Postemergence, 31 g ai/ha): 70; Ragweed plant response rating (0 to 100 scale) [13, 19]: 90; Ryegrass, Italian plant response rating (0 to 100 scale) ([14]; Postemergence, 31 g ai/ha): 80; Ryegrass, Italian plant response rating (0 to 100 scale) [14, 19]: 100; Blackgrass plant response rating (0 to 100 scale) ([15]; Postemergence, 31 g ai/ha): 20; Blackgrass plant response rating (0 to 100 scale) [15, 19]: 40; Corn plant response rating (0 to 100 scale) (corn (Zea mays); Postemergence, 31 g ai/ha): 10; Corn plant response rating (0 to 100 scale) (corn (Zea mays); [19]): 30; Wheat plant response rating (0 to 100 scale) ([16]; Postemergence, 31 g ai/ha): 30; Wheat plant response rating (0 to 100 scale) [16, 19]: 70; Galium plant response rating (0 to 100 scale) ([17]; Postemergence, 31 g ai/ha): 100; Galium plant response rating (0 to 100 scale) [17, 19]: 100; Foxtail, Giant plant response rating (0 to 100 scale) ([18]; Postemergence, 31 g ai/ha): 70; Foxtail, Giant plant response rating (0 to 100 scale) [18, 19]: 80
CO/N=C(\c1c(O)c(C)nn(C)c1=O)c1cc(SC)cc2ccccc12 [Compound 279]	0	0	0	0	0	0	0	0	0	0	0	0	0	0	0	0	0	30	0	0	Pigweed plant response rating (0 to 100 scale) ([12]; Postemergence, 31 g ai/ha): 0; Pigweed plant response rating (0 to 100 scale) [12, 19]: 10; Ragweed plant response rating (0 to 100 scale) ([13]; Postemergence, 31 g ai/ha): 0; Ragweed plant response rating (0 to 100 scale) [13, 19]: 10; Ryegrass, Italian plant response rating (0 to 100 scale) ([14]; Postemergence, 31 g ai/ha): 0; Ryegrass, Italian plant response rating (0 to 100 scale) [14, 19]: 0; Blackgrass plant response rating (0 to 100 scale) ([15]; Postemergence, 31 g ai/ha): 0; Blackgrass plant response rating (0 to 100 scale) [15, 19]: 0; Corn plant response rating (0 to 100 scale) (corn (Zea mays); Postemergence, 31 g ai/ha): 0; Corn plant response rating (0 to 100 scale) (corn (Zea mays); [19]): 0; Wheat plant response rating (0 to 100 scale) ([16]; Postemergence, 31 g ai/ha): 0; Wheat plant response rating (0 to 100 scale) [16, 19]: 0; Galium plant response rating (0 to 100 scale) ([17]; Postemergence, 31 g ai/ha): 0; Galium plant response rating (0 to 100 scale) [17, 19]: 0; Foxtail, Giant plant response rating (0 to 100 scale) ([18]; Postemergence, 31 g ai/ha): 0; Foxtail, Giant plant response rating (0 to 100 scale) [18, 19]: 0
C#CCO/N=C(/c1cccc(Br)c1)c1c(O)c(C)nn(C)c1=O [Compound 277]	0	0	0	0	0	90	0	30	10	70	20	80	10	100	10	30	50	70	20	60	Pigweed plant response rating (0 to 100 scale) ([12]; Postemergence, 31 g ai/ha): 40; Pigweed plant response rating (0 to 100 scale) [12, 19]: 60; Ragweed plant response rating (0 to 100 scale) ([13]; Postemergence, 31 g ai/ha): 40; Ragweed plant response rating (0 to 100 scale) [13, 19]: 90; Ryegrass, Italian plant response rating (0 to 100 scale) ([14]; Postemergence, 31 g ai/ha): 40; Ryegrass, Italian plant response rating (0 to 100 scale) [14, 19]: 70; Blackgrass plant response rating (0 to 100 scale) ([15]; Postemergence, 31 g ai/ha): 30; Blackgrass plant response rating (0 to 100 scale) [15, 19]: 80; Corn plant response rating (0 to 100 scale) (corn (Zea mays); Postemergence, 31 g ai/ha): 10; Corn plant response rating (0 to 100 scale) (corn (Zea mays); [19]): 30; Wheat plant response rating (0 to 100 scale) ([16]; Postemergence, 31 g ai/ha): 30; Wheat plant response rating (0 to 100 scale) [16, 19]: 70; Galium plant response rating (0 to 100 scale) ([17]; Postemergence, 31 g ai/ha): 70; Galium plant response rating (0 to 100 scale) [17, 19]: 80; Foxtail, Giant plant response rating (0 to 100 scale) ([18]; Postemergence, 31 g ai/ha): 10; Foxtail, Giant plant response rating (0 to 100 scale) [18, 19]: 60
CC(C)O/N=C(/c1c(O)c(Cl)nn(C)c1=O)c1ccc(F)c2ccccc12 [Compound 209]	0	80	0	50	0	40	50	80	20	100	90	90	10	30	80	100	10	40	50	80	Pigweed plant response rating (0 to 100 scale) ([12]; Postemergence, 31 g ai/ha): 50; Pigweed plant response rating (0 to 100 scale) [12, 19]: 90; Ragweed plant response rating (0 to 100 scale) ([13]; Postemergence, 31 g ai/ha): 90; Ragweed plant response rating (0 to 100 scale) [13, 19]: 90; Ryegrass, Italian plant response rating (0 to 100 scale) ([14]; Postemergence, 31 g ai/ha): 10; Ryegrass, Italian plant response rating (0 to 100 scale) [14, 19]: 40; Blackgrass plant response rating (0 to 100 scale) ([15]; Postemergence, 31 g ai/ha): 10; Blackgrass plant response rating (0 to 100 scale) [15, 19]: 30; Corn plant response rating (0 to 100 scale) (corn (Zea mays); Postemergence, 31 g ai/ha): 10; Corn plant response rating (0 to 100 scale) (corn (Zea mays); [19]): 20; Wheat plant response rating (0 to 100 scale) ([16]; Postemergence, 31 g ai/ha): 0; Wheat plant response rating (0 to 100 scale) [16, 19]: 0; Galium plant response rating (0 to 100 scale) ([17]; Postemergence, 31 g ai/ha): 90; Galium plant response rating (0 to 100 scale) [17, 19]: 100; Foxtail, Giant plant response rating (0 to 100 scale) ([18]; Postemergence, 31 g ai/ha): 70; Foxtail, Giant plant response rating (0 to 100 scale) [18, 19]: 90
